Experimental data from US20230368862A1, “BINDING SITE IN TYPE 2 RYANODINE RECEPTOR” (The Trustees of Columbia University in the City of New York, priority 2021, published 2023).

Key:
recombinant RyR2 = target: T1, recombinant RyR2 (Homo sapiens, UniProt Q92736); experiment: Single channel recordings in planar lipid bilayers (open probability); type: biochemical; details: xanthine 10 μM; Ca2+ 150 nM
T1 construct: expressed in transfected cells; host or cells: HEK293
Protocol: To confirm the functional role of xanthine in RyR2, single-channel experiments were performed. ER vesicles from HEK293 cells expressing RyR2 were prepared by homogenizing cell pellets on ice using a Teflon glass homogenizer with two volumes of solution containing 20 mM tris-maleate (pH 7.4), 1 mM EDTA, 1 mM DTT, and protease inhibitors (Roche). Homogenate was then spun by centrifuge at 4000 g for 15 min at 4° C., and the resulting supernatant was spun by centrifuge at 40,000 g for 30 min at 4° C. The final pellet, containing the ER fractions, was resuspended and aliquoted in 250 mM sucrose, 10 mM Mops (pH 7.4), 1 mM EDTA, 1 mM DTT, and protease inhibitors. Samples were frozen in liquid nitrogen and stored at −80° C.
ER vesicles were fused to planar lipid bilayers formed by painting a lipid mixture of phosphatidylethanolamine and PC (Avanti Polar Lipids) in a 5:3 ratio in decane across a […] in polysulfonate cups (Warner Instruments) separating two chambers. […] The concentration of free Ca^2+ in the cis chamber was calculated as previously described. […] Single-channel currents were recorded at 0 mV using Bilayer Clamp BC-525D (Warner Instruments), filtered at 1 kHz using Low-Pass Bessel Filter 8 Pole (Warner Instruments), and digitized at 4 kHz. […] The recordings were analyzed using Clampfit 10.1 (Molecular Devices) and GraphPad Prism software.

[1] = target: T2, PKA phosphorylated RyR2-R2474S (Homo sapiens, UniProt Q92736, R2474S); experiment: Cryo-EM analysis with normalized difference in RMSD (pairwise domain comparison)
T2 construct: Each fragment was subcloned into a full-length human RYR2 construct in pCMV5 vector; made in house; host or cells: HEK293 (RyR2-R2474S, transient); E. coli BL21(DE3) (GST-calstabin-2)
T2 sequence (Q92736 whole entry R2474S, the tested form may be a part): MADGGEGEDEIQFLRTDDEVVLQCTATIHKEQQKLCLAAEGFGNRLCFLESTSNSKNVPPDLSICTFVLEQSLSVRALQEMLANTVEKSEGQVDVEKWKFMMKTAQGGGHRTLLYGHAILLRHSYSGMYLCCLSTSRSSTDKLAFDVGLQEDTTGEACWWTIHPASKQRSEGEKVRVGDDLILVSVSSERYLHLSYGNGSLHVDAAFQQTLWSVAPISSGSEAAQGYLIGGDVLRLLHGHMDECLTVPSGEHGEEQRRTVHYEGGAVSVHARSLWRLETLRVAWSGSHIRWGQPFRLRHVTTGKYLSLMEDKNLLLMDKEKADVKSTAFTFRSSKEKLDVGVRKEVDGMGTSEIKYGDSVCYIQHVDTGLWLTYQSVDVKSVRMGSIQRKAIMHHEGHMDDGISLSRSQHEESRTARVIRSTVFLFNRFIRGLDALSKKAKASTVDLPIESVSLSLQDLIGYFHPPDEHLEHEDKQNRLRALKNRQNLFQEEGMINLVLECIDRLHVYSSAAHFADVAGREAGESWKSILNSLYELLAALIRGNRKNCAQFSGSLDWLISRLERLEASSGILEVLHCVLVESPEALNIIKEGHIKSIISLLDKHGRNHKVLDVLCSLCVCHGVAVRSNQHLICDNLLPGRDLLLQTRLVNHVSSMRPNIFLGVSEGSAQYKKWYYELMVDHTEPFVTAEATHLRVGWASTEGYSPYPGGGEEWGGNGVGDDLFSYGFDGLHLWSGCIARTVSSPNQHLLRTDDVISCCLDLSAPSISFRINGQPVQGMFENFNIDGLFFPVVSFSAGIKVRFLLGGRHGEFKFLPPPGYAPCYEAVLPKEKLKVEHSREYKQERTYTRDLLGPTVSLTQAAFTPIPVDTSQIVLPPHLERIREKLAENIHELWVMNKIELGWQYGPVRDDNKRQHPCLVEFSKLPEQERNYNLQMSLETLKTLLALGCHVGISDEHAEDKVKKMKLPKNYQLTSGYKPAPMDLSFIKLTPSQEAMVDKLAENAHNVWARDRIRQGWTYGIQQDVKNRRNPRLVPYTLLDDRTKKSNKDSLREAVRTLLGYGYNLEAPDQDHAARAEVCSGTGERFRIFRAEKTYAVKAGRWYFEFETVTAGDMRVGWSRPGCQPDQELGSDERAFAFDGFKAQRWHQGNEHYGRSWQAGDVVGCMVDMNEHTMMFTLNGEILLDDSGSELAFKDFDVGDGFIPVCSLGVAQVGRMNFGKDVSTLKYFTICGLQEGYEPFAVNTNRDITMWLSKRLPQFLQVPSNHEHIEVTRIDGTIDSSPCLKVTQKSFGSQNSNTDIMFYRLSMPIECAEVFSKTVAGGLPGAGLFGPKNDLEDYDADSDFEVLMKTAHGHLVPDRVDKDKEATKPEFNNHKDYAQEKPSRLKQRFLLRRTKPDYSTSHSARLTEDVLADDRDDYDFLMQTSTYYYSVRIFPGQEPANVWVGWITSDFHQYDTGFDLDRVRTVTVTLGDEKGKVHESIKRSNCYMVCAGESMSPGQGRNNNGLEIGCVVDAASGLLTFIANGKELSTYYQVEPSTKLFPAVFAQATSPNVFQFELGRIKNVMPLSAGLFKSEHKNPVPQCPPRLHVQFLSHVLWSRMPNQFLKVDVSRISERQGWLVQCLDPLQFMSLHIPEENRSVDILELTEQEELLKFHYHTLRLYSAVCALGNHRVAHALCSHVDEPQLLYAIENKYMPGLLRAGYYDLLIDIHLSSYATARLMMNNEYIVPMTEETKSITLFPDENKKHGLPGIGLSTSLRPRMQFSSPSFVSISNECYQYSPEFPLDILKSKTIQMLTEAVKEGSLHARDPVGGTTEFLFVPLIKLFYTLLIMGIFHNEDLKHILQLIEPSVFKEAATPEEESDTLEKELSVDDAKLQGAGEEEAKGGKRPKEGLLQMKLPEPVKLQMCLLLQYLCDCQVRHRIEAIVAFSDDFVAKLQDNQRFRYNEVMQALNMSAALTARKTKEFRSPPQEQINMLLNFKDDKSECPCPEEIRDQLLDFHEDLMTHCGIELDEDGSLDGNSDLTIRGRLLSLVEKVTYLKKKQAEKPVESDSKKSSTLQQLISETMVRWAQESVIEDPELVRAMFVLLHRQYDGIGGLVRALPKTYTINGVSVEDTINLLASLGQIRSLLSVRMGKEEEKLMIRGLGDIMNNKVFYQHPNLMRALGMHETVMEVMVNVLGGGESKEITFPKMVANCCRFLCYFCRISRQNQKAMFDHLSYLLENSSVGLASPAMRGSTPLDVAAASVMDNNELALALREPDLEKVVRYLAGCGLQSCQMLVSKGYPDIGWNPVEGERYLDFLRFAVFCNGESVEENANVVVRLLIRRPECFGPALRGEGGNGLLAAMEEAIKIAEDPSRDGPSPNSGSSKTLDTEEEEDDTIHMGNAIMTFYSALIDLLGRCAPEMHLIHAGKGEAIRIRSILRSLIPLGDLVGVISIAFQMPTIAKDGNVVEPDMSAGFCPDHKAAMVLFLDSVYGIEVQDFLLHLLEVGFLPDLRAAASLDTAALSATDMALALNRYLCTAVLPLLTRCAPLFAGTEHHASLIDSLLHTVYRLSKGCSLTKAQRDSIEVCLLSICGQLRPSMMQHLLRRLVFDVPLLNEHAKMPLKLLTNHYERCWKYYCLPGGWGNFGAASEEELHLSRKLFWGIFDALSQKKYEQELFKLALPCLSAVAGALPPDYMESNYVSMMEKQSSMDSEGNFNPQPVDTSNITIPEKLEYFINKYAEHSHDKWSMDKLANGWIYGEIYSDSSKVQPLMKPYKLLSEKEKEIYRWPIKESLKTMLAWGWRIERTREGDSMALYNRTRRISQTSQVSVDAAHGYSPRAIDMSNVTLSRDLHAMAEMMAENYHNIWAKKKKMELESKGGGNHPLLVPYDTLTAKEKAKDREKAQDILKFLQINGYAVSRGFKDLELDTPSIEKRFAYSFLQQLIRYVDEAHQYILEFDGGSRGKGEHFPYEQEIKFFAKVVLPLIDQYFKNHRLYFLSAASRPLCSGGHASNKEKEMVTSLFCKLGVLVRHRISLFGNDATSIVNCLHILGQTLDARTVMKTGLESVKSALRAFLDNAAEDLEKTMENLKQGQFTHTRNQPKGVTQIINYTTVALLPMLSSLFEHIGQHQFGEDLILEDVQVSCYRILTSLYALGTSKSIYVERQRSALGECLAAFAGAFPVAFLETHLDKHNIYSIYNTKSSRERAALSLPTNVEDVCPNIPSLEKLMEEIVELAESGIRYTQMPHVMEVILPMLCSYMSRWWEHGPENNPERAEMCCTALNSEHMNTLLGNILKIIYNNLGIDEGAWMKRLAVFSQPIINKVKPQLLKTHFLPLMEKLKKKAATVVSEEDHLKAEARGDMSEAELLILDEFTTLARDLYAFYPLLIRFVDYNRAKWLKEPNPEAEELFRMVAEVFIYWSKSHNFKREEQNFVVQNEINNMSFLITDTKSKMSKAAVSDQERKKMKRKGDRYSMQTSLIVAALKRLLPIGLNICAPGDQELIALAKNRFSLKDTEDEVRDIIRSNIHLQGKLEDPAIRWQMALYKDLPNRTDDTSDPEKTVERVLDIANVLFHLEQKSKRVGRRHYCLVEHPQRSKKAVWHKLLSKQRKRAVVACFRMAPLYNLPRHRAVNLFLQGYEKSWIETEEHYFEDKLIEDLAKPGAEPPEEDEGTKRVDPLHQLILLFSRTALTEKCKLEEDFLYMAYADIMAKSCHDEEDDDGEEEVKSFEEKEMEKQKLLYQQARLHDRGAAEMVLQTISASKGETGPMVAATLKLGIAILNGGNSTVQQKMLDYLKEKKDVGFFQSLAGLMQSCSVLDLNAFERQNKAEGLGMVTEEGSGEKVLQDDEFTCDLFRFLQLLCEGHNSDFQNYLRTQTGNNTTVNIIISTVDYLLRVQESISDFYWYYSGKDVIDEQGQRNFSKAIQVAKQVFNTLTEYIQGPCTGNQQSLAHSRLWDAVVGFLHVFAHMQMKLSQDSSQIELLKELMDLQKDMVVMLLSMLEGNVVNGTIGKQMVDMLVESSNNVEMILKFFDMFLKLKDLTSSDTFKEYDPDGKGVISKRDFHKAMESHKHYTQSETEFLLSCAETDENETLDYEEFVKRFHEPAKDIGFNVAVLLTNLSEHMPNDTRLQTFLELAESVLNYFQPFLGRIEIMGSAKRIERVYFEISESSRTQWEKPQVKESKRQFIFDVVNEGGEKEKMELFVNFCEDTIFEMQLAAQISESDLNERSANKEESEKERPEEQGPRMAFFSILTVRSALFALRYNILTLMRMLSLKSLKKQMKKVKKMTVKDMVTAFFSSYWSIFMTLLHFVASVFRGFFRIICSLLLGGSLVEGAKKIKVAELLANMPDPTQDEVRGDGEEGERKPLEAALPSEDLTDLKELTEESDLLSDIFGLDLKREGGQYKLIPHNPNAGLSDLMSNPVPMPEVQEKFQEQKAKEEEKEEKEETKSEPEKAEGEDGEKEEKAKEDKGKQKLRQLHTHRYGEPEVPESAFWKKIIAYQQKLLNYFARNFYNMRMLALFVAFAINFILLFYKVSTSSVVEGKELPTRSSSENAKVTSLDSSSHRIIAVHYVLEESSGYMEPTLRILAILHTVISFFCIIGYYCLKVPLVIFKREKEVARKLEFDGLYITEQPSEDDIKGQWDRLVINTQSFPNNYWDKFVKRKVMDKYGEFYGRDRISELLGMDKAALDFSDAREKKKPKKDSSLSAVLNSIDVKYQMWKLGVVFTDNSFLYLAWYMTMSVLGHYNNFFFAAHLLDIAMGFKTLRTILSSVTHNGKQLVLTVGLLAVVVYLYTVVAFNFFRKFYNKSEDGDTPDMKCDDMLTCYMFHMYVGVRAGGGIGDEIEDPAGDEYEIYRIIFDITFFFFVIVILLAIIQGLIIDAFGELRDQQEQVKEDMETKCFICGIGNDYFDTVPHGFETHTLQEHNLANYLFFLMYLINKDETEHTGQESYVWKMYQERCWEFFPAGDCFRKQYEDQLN
T2 sequence (P68106 whole entry partner, the tested form may be a part): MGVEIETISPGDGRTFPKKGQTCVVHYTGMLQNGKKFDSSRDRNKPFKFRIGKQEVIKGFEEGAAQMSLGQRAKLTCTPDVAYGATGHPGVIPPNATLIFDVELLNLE
Protocol: Each of the final samples (3 μl each) prepared in EXAMPLE 5 was applied to UltrAuFoil holey gold grids (Quantifoil R 0.6/1.0, Au 300) previously cleaned with easiGlow (PELCO). Grids were blotted with ashless filter paper (Whatman) using blot force 10 and blot time 8 s before vitrification by plunge-freezing into liquid ethane chilled with liquid nitrogen using Vitrobot Mark IV (Thermo Fisher Scientific) operated at 4° C. with 100% relative humidity.
Prepared grids were screened in-house on a Glacios Cryo-TEM (Thermo Fisher Scientific) microscope with a 200-kV x-FEG source and a Falcon 3EC direct electron detector (Thermo Fisher Scientific). Microscope operations and data collection were carried out using EPU software (Thermo Fisher Scientific). High-resolution data collection was performed at Columbia University on a Titan Krios 300-kV (Thermo Fisher Scientific) microscope equipped with an energy filter (slit width 20 eV) and a K3 direct electron detector (Gatan). Data were collected using Leginon and at a nominal magnification of ×105,000 in electron counting mode, corresponding to a pixel size of 0.83 Å. The electron dose rate was set to 16 e^−/pixel per second with 2.5-s exposures for a total dose of 50 to 60 e/A2.
Cryo-EM data processing was performed in cryoSPARC with image stacks aligned using Patch motion, defocus value estimation by Patch CTF estimation. Particle picking was performed using the template picker with templates created from preexisting cryo-EM maps. Particles were subjected to 2D classification in cryoSPARC with 100 classes. Particles from the highest-resolution classes were pooled for ab initio 3D reconstruction with a single class followed by homogeneous refinement with C4 symmetry imposed. 3D variability and further clustering were performed using a mask comprising the TM domain to separate those particles in the closed and open states followed by heterogeneous refinement with four classes to further select the best particles. C4 symmetry expansion was performed before local refinements. The masks used were TaF+TM+CTD domains (residues 4131 to 4967), calstabin-2+NTD+SPRY domains (residues 1 to 1646), JSol+CSol domains (residues 1700 to 2476, 3590 to 4130), and BSol domain (residues 2400 to 3344). Only the TaF+TM+CTD mask used C4 symmetry. Smaller masks, for a second round of 3D variability analysis, clustering, and local refinement, were RY1&2 (residues 862 to 1076), RY3&4 (residues 2685 to 2909), and BSol2 (residues 3042 to 3344). Local refinements used a dynamical mask with a far distance of 10, 50, and 150 Å for the initial masks, small masks, and expanded RY3&4 mask for comparing the effect of RY3&4 stabilization, respectively. The resulting maps were combined in ChimeraX to generate a composite map before calibration of the pixel size using correlation coefficients with a map generated from the crystal structure of the NTD of RyR2 (PDB ID: 4JKQ). The pixel size was altered by 0.001 Å per step, up to 20 steps in each direction.
An initial model of RYR2 was generated with Phenix tool sculptor from a 2.45-Å structure of RyR1 (PDB ID: 7TZC). Truncated residues were manually corrected to obtain the full side chains. Only domains RY1&2 and RY3&4, which show weak cryo-EM density and confidence in structure, were based on crystallographic structures. The initial model of RyR2 RY1&2 domain was generated with Phenix tool sculptor from the RY1&2 domain of RyR3 with ATP (PDB ID: […]). The model of RyR2 RY3&4 domain was obtained as is (PDB ID: 4ETV). Calstabin-2 and CaM models were obtained as is (PDB ID: 6JI8). Model building was performed in Coot and refined with Phenix tool RealSpaceRefine.
This analysis determined the conformation of a certain query domain from a model X relative to reference closed and open states of RyR2. To this end, the RMSD of Ca of the query domain was measured between model X and the closed state (RMSDX-closed), and between model X and the open state (RMSDX-open). […]

RyR2-R2474S channels = target: T3, RyR2-R2474S channels (Mus musculus, UniProt E9Q401, R2473S); experiment: SR Ca^2+ leak assay in heart microsomes (Fluo-4); type: biochemical; details: heart microsomes from mice treated with epinephrine and Compound 1 in vivo
T3 construct: Cardiac muscle SR microsomes were prepared by homogenizing heart samples on ice; from tissue; host or cells: heart of Ryr2 R2474S/WT mice (SR microsomes)
Protocol: Ca^2+ leak was measured in microsomes from heart lysates isolated from control Ryr^2R2474S/WT mice, Ryr^2R2474S/WT mice treated with epinephrine, and Ryr^2R2474S/WT mice treated with epinephrine and Compound 1 in EXAMPLE 8. […] Cardiac muscle SR microsomes were prepared by homogenizing heart samples on ice using a Teflon glass homogenizer (50 times) with 2 volumes of 20 mM tris-maleate (pH 7.4), 1 mM EDTA, 1 mM DTT, and protease inhibitors (Roche). Homogenate was then spun by centrifuge at 4000 g for 15 min at 4° C., and the resultant supernatant was spun by centrifuge at 50,000 g for 45 min at 4° C. Pellets were resuspended in lysis buffer containing 300 mM sucrose. Microsomes ([…]) were diluted into a buffer (pH 7.2) containing 8 mM K-phosphocreatine, and creatine kinase (2 U/ml), mixed with 3 μM Fluo-4 and added to multiple wells of a 96-well plate. Ca^2+ loading of the microsomes was initiated by adding 1 mM ATP. After Ca^2+ uptake (50 s), 3 μM thapsigargin was added to inhibit the Ca^2+ reuptake by SERCA. SR Ca^2+ leak was measured by the increase in intensity of the Fluo-4 signal (measured in a Tecan fluorescence plate reader). Ca^2+ leak was quantified as the difference between the average Fluo-4 signal before and after addition of thapsigargin. Graphs were plotted with GraphPad Prism software.

Ryr2^R2474S/WT mice = experiment: Telemetric electrocardiogram recordings during epinephrine arrhythmia provocation; type: in vivo
From the text: Ryr2^R2474S/WT mice were implanted with radio telemetry transmitters (Data Sciences International). Briefly, the transmitter (PhysioTel, ETA-F10 transmitter) was inserted in mice subcutaneously along the back under general anesthesia (5% inhaled isoflurane). Two electrocardiogram (ECG) electrodes were placed hypodermically in the region of the right shoulder (negative pole) and toward the lower left chest (positive pole) to approximate lead II of the Einthoven surface ECG. During the procedure, respiratory and cardiac rhythm, adequacy of anesthetic depth, muscle relaxation, body temperature, and analgesia were monitored to avoid anesthesia-related complications. Postoperative pain was considered during a 1-week post-implantation period, and carprofen (5 mg/kg, subcutaneously) was given. A minimum period of 2 weeks was allowed for recovery from the surgery. Animals were housed in individual stainless-steel cages for telemetry recordings. Environmental parameters were recorded continuously and maintained within a fixed range: room temperature at 15° C. to 21° C. and 45 to 65% relative humidity. The artificial day/night cycle was 12-hour light/12-hour dark with light on at 0700 hours. Drinking water was provided ad libitum. Solid diet ([…]) was given daily in the morning. ECG waveforms were continuously recorded at a sampling rate of 2000 Hz using a signal transmitter-receiver (RPC-1) connected to a data acquisition system (Ponemah system, Data Sciences International). Compound 1 (50 mg/kg per day) was given in drinking water for 2 weeks before ECG recordings. Mice were recorded for 1 hour at baseline and then given epinephrine injection (1 mg/kg, intraperitoneally) and recorded for another 2 hours. The animals used in the study were maintained and studied according to protocols approved by the Institutional Animal Care and Use Committee of Columbia University (reference no. AC-AABP1551).

[2] = P-RyR2-R2474S + Cpd1 vs closed/open PKA RyR2, 0 = closed state, 1 = open state
[3] = 50 mg/kg per day in drinking water for 2 weeks, epinephrine 1 mg/kg i.p.

T1 sequence (Q92736 whole entry): as the sequence (Q92736 whole entry R2474S, the tested form may be a part) above, with S2474R counted along it

O=c1[nH]c(=O)c2[nH]cnc2[nH]1 [xanthine]
increase in the open probability of RyR2 (recombinant RyR2): ~25 fold

COc1ccc2c(c1)CN(Cc1ccc(C(=O)O)cc1)CCS2 [Compound 1]
effect on the primed state of PKA-phosphorylated RyR2-R2474S (cryo-EM structure comparison) ([1]; 10 mM ATP, 150 nM free Ca2+, 500 μM xanthine): partially reversed the primed state
Normalized difference in RMSD, BSol [1, 2]: 0.32
Normalized difference in RMSD, BSol2 [1, 2]: 0.40
Normalized difference in RMSD, NTD [1, 2]: 0.42
Normalized difference in RMSD, SPRY [1, 2]: 0.41
reduction toward the closed state in RMSD analysis compared to primed PKA-phosphorylated RyR2-R2474S ([1]; in some domains): more than 50%
RMSD Cα BSol, P-RyR2-R2474S + Cpd1 (PDB:7UA1) vs P-RyR2-C (PDB:7U9Q) ([1]; vs closed PKA RyR2): 1.61 ± Å
RMSD Cα NTD, P-RyR2-R2474S + Cpd1 (PDB:7UA1) vs P-RyR2-C (PDB:7U9Q) ([1]; vs closed PKA RyR2): 1.20 ± Å
RMSD Cα SPRY, P-RyR2-R2474S + Cpd1 (PDB:7UA1) vs P-RyR2-C (PDB:7U9Q) ([1]; vs closed PKA RyR2): 0.88 ± Å
RMSD Cα BSol2, P-RyR2-R2474S + Cpd1 (PDB:7UA1) vs P-RyR2-C (PDB:7U9Q) ([1]; vs closed PKA RyR2, 10 mM NaATP, 500 μM xanthine, 150 nM free Ca2+): 3.08 ± Å
RMSD Cα CSol, P-RyR2-R2474S + Cpd1 (PDB:7UA1) vs P-RyR2-C (PDB:7U9Q) ([1]; vs closed PKA RyR2, aligned control domain, used as error): 0.53 Å
RMSD Cα BSol2, P-RyR2-R2474S + Cpd1 (PDB:7UA1) vs P-RyR2-O (PDB:7U9R) ([1]; vs open PKA RyR2): 4.63 ± Å
RMSD Cα BSol, P-RyR2-R2474S + Cpd1 (PDB:7UA1) vs P-RyR2-O (PDB:7U9R) ([1]; vs open PKA RyR2): 3.36 ± Å
RMSD Cα NTD, P-RyR2-R2474S + Cpd1 (PDB:7UA1) vs P-RyR2-O (PDB:7U9R) ([1]; vs open PKA RyR2): 1.66 ± Å
RMSD Cα SPRY, P-RyR2-R2474S + Cpd1 (PDB:7UA1) vs P-RyR2-O (PDB:7U9R) ([1]; vs open PKA RyR2): 1.25 ± Å
RMSD Cα CSol, P-RyR2-R2474S + Cpd1 (PDB:7UA1) vs P-RyR2-O (PDB:7U9R) ([1]; vs open PKA RyR2, aligned control domain, used as error): 0.41 Å
SR Ca^2+ leak (increase in Fluo-4 signal after thapsigargin) (RyR2-R2474S channels): prevented SR Ca^2+ leak
frequency of ventricular tachycardia (Ryr2^R2474S/WT mice; [3]): reduced the frequency of ventricular tachycardia
sudden cardiac death (SCD) (Ryr2^R2474S/WT mice; [3]): prevented sudden cardiac death
sustained ventricular tachycardia (sVT) (Ryr2^R2474S/WT mice; 50 mg/kg/day in drinking water, epinephrine 1 mg/kg): prevented sVT
